This passage reports TGI and GI50 results from PubChem BioAssay (NCI).

Several values for one entry are separate records, joined by “and”; a condition that tells them apart may be missing. Equal entries are not always repeated.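 The compound was tested at five concentrations on cells cultured in 96-well plates, with a 48-hour exposure period. GI50: concentration for 50% inhibition of growth. TGI: total growth inhibition.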

Some test systems named below: RXF 393 renal; CAKI-1 renal; OVCAR-4 ovarian; SK-MEL-5 melanoma; ACHN renal; CCRF-CEM leukemia; OVCAR-5 ovarian; COLO 205 colon; MDA-MB-435.
Assay in all cases: growth of human tumour cells (NCI), 48 h

As to `O=C1[C@H]2ON(c3ccccc3)C(c3cccc([N+](=O)[O-])c3)[C@H]2C(=O)N1c1ccc(Cc2ccc(N3C(=O)[C@@H]4ON(c5ccccc5)C(c5cccc([N+](=O)[O-])c5)[C@@H]4C3=O)cc2)cc1` (stereo partly drawn), the TGI in the assay on RXF 393 renal, in the assay on CAKI-1 renal, with OVCAR-4 ovarian, in the assay with SK-MEL-5 melanoma, in the assay on ACHN renal and with CCRF-CEM leukemia was more than 100 µM each time. Moreover, the TGI in the assay with OVCAR-5 ovarian and with COLO 205 colon was more than 100 µM throughout.
Consider `CC(C)(C)c1cc(C(=O)O)c(C(c2ccccc2)c2ccccc2C(=O)O)c(C(=O)O)c1` (stereo not drawn), for which the TGI in the assay on RXF 393 renal is more than 100 µM; in the assay on CAKI-1 renal it was more than 100 µM; in the assay with OVCAR-4 ovarian, 37.7 µM; in the assay with ACHN renal, 40 µM; in the assay with CCRF-CEM leukemia, more than 100 µM; in the assay with OVCAR-5 ovarian, more than 100 µM. In the assay with COLO 205 colon, this molecule returned a TGI of more than 100 µM.
Turning to `COC(=O)Cc1cc(=O)oc2c1C(=O)CCC2`, the TGI in the assay on RXF 393 renal, in the assay on CAKI-1 renal, in the assay on OVCAR-4 ovarian, in the assay with SK-MEL-5 melanoma, in the assay on ACHN renal and in the assay on CCRF-CEM leukemia was more than 100 µM in each case. In addition, the TGI in the assay with OVCAR-5 ovarian and with COLO 205 colon was more than 100 µM each time.
Consider `BrC(Br)([P+](c1ccccc1)(c1ccccc1)c1ccccc1)[P+](c1ccccc1)(c1ccccc1)c1ccccc1`, for which the TGI in the assay on RXF 393 renal was 23.6 µM; in the assay with CAKI-1 renal, 39.5 µM; in the assay with OVCAR-4 ovarian, 43.3 µM; in the assay on SK-MEL-5 melanoma, 32.2 µM; in the assay with ACHN renal, 69.3 µM; in the assay on OVCAR-5 ovarian, 81.3 µM. This molecule also returned a TGI in the assay on COLO 205 colon of 29.9 µM.
`c1cc2ccc1C1NCCCN1CCN1CCCNC1c1ccc(cc1)C1NCCCN1CCN1CCCNC21` (stereo not drawn): the TGI in the assay on CAKI-1 renal, in the assay with OVCAR-4 ovarian, in the assay with SK-MEL-5 melanoma, in the assay with ACHN renal, in the assay with CCRF-CEM leukemia and in the assay with OVCAR-5 ovarian was more than 100 µM throughout. In addition, the TGI in the assay with COLO 205 colon is more than 100 µM.
`O=C(NOC(=O)c1ccc([N+](=O)[O-])cc1)c1ccc(Cl)cc1`: the TGI with RXF 393 renal, with CAKI-1 renal, in the assay with OVCAR-4 ovarian, in the assay on SK-MEL-5 melanoma, in the assay on ACHN renal and in the assay with CCRF-CEM leukemia was more than 100 µM throughout. The TGI in the assay with OVCAR-5 ovarian and in the assay with COLO 205 colon was more than 100 µM each time.
On to `CC12O[Te]34OC1(C)C(C)(O3)C2(C)O4`, for which the TGI in the assay with RXF 393 renal amounted to 27 µM; in the assay with CAKI-1 renal, 22.6 µM; in the assay on OVCAR-4 ovarian, 27.4 µM; with ACHN renal it was 27 µM; in the assay on OVCAR-5 ovarian, 23.7 µM; in the assay on COLO 205 colon, 31.1 µM.
With `CN1C(=O)CC2(C)c3cc(C=O)ccc3N(C)C12` (stereo not drawn), the TGI in the assay with RXF 393 renal, with OVCAR-4 ovarian, with SK-MEL-5 melanoma, in the assay on ACHN renal, with CCRF-CEM leukemia and in the assay on OVCAR-5 ovarian was more than 100 µM each time. In the assay on COLO 205 colon, this molecule showed a TGI of more than 100 µM.
With `C=C1c2ccccc2N(S(=O)(=O)c2ccc(C)cc2)C12CCCCC2`, the TGI in the assay on RXF 393 renal, in the assay on OVCAR-4 ovarian, in the assay on SK-MEL-5 melanoma, with ACHN renal, in the assay with CCRF-CEM leukemia and with OVCAR-5 ovarian was more than 100 µM in each case. Also, in the assay on COLO 205 colon, the TGI is more than 100 µM.
Consider `O=C1OC(c2ccc(Cl)c3ccccc23)c2ccccc21` (stereo not drawn), for which the TGI in the assay on RXF 393 renal, in the assay on CAKI-1 renal, with OVCAR-4 ovarian, in the assay on SK-MEL-5 melanoma, in the assay with ACHN renal and with CCRF-CEM leukemia was more than 100 µM each time. For the same molecule, the TGI with OVCAR-5 ovarian and in the assay with COLO 205 colon was more than 100 µM in each case.
As for `COc1cc(-c2nn3c(=O)n(-c4ccc(Cl)cc4)c(=O)nc3s2)cc(OC)c1OC`, the GI50 with RXF 393 renal is 14.7 µM; with CAKI-1 renal it was more than 50 µM; in the assay on OVCAR-4 ovarian, 16.1 µM; with ACHN renal, more than 50000 nM; in the assay with CCRF-CEM leukemia, more than 5000 nM; in the assay with COLO 205 colon, more than 50 µM. Also, the TGI in the assay on RXF 393 renal is 40.7 µM and 21.6 µM; in the assay on CAKI-1 renal it was more than 62.2 µM; in the assay on OVCAR-4 ovarian, 50 µM and 99.8 µM; in the assay on SK-MEL-5 melanoma, more than 100 µM; in the assay with ACHN renal, more than 67.7 µM; in the assay with CCRF-CEM leukemia, more than 100 µM. Also, the TGI in the assay on OVCAR-5 ovarian and in the assay with COLO 205 colon was more than 100 µM each time.
`C(/C=C/N1CCCC1)=C\c1nc(N2CCCC2)c2ccccc2n1`: the TGI with CAKI-1 renal amounted to 35.3 µM; in the assay on OVCAR-4 ovarian, 27.8 µM; in the assay with SK-MEL-5 melanoma, 33.3 µM; in the assay on ACHN renal it was 30.8 µM; in the assay with CCRF-CEM leukemia, 50.1 µM; with OVCAR-5 ovarian, 28.9 µM. Further, the TGI with COLO 205 colon was 28.5 µM.
`COc1cc2c(c(OC)c1OC)-c1ccc(SC)c(=O)cc1[C@@H](NC(=O)c1ccc(F)cc1)CC2`: the TGI in the assay on OVCAR-4 ovarian was 91.1 µM; in the assay with ACHN renal, 91.3 µM; in the assay on CCRF-CEM leukemia, more than 100 µM; with OVCAR-5 ovarian it was more than 100 µM; in the assay with COLO 205 colon it was 0.0388 µM and < 0.01 µM. Besides, the GI50 in the assay with SK-MEL-5 melanoma is 30.5 nM; in the assay on ACHN renal, less than 10 nM; in the assay on COLO 205 colon it was less than 0.01 µM.
In the case of `CCOC(=O)/N=c1\ssc(Cl)c1Cl`, the GI50 is 3.01 µM in the assay with RXF 393 renal; 14.9 µM in the assay with CAKI-1 renal; 35.5 µM in the assay with OVCAR-4 ovarian; 3900 nM in the assay on SK-MEL-5 melanoma; 1950 nM with ACHN renal; 15.2 µM in the assay on MDA-MB-435. Further, the GI50 in the assay with CCRF-CEM leukemia was 646 nM; in the assay on OVCAR-5 ovarian, 4.86 µM; in the assay on COLO 205 colon it was 19 µM. Further, the TGI in the assay on RXF 393 renal was 10.6 µM; in the assay on CAKI-1 renal it was 29.4 µM; in the assay on OVCAR-4 ovarian, more than 100 µM; with SK-MEL-5 melanoma it was 19.1 µM; in the assay on ACHN renal, 4.37 µM; in the assay on MDA-MB-435, 30.8 µM. In addition, the figures for the TGI in the assay on CCRF-CEM leukemia, in the assay on OVCAR-5 ovarian and with COLO 205 colon were more than 100 µM, 28.1 µM and 44.8 µM, respectively.
As for `CCC1(Cl)C(=O)NC(=O)N(C2CC(O)C(CO)O2)C1N=[N+]=[N-]` (stereo not drawn), the TGI in the assay with RXF 393 renal, with CAKI-1 renal, with OVCAR-4 ovarian, with SK-MEL-5 melanoma, in the assay on ACHN renal and in the assay on CCRF-CEM leukemia was more than 100 µM throughout. The TGI with OVCAR-5 ovarian and in the assay on COLO 205 colon was more than 100 µM throughout.
